pIC50: −log10 of the molar value.
Assays:
Hepa1-6 cells = test: Drug interaction (combination) in Hepa1-6 cell proliferation; format: cell-based
Description: FIGS. 42A-42B show drug interaction effect of Compound I-32 (FIG. 42A) and Compound I-1 (FIG. 42B) in combination with regorafenib in Hepa1-6 cell proliferation. In FIG. 42A, “1+0.05 (μM)” means 1 μM Compound I-32+0.05 μM regorafenib, etc. In FIG. 42B, “1+0.05 (μM)” means 1 μM Compound I-1+0.05 μM regorafenib, etc.
In FIG. 46A, “1+0.05 (μM)” means 1 μM Compound I-1+0.05 μM sorafenib, etc. […] In FIG. 46B, “1+0.3 (μM)” means 1 μM Compound I-1+0.3 μM lenvatinib, etc. […] In FIG. 46C, “1+0.05 (μM)” means 1 μM Compound I-32+0.05 μM sorafenib, etc. […] In FIG. 46D, “1+0.3 (μM)” means 1 μM Compound I-32+0.3 μM lenvatinib, etc.

[1] = tested on: hepatic cell death pathways (pyroptosis, necroptosis, apoptosis); test: Hepatic cell death pathways by Western blot (gasdermin D, cleaved caspase 3, cleaved RIP3); format: in vivo, mouse; details: liver samples from HFCC/CDX mice, 100 mg/kg QD oral, 2 weeks
Description: Compound I-1 and Compound I-32 were tested for their ability to alter hepatic cell death pathways (i.e., pyroptosis, necroptosis, and apoptosis) using liver samples from Example 7. Detection was performed on liver sections obtained from the experiment described in Example 7. Paraffin sections were deparaffinized. Western blot analysis was performed by the We-Met platform. Toulouse. France, France. Commercial primary antibodies for Gasdermin D (reference ab209845; Abcam, Cambridge, UK), cleaved caspase 3 (reference 9664, Cell Signaling Technology. Danvers, Mass.), cleaved receptor interacting protein 3 (RIP3; reference ab56164; Abcam) and actin (reference 4970; Cell Signaling Technology) for control, were used on the WES automated western blot system (Proteinsimple, San Jose, Calif.). Data are presented as mean±SEM, with n=6-10 mice per experimental group, as indicated in the legends. Two-way analysis of variance with Bonferroni post-test. Mann-Whitney U-test, or unpaired two-tailed Student's t-test were used for statistical analysis using GraphPad Prism software (GraphPad Software, La Jolla, Calif.). A P<0.05 was considered significant.

[2] = tested on: Hep3B human hepatocarcinoma cells; test: Colony formation assay (clonogenic survival, 7 days); format: cell-based; details: 168 h, read-out: Hep3B (IC50), anti-clonogenic activity
Description: (§1) Colony formation assay. Hep3B and Hepa1-6 cells were seeded in 12-well plates at a cell density of 1000 and 500 cells/well, respectively. On day 2, media in each well was aspirated and replaced with 1000 μl of fresh complete media and cells were treated with or without the respective drugs in an increasing concentration followed by the incubation of the cells for 7 days in an incubator.
(§2) On day 9, the media in each well was aspirated and cells were fixed with 10% formalin (500 μl) for 10 minutes at room temperature. Formalin was aspirated and the plates were washed with 1×PBS and stained with crystal violet for another 10 minutes. After 10 minutes of staining, crystal violet was […] the cells, rinsed with tap water for three times and the plates were dried overnight. Next day, colonies (>50 cells) were counted and analyzed.
(§3) Statistical tests. Results were indicated as mean±standard deviation (SD). All line graphs were prepared using Graph Pad Prism 8 software. Proliferation and clonogenics IC50 values were calculated using a non-linear regression model in Graph pad Prism 8.

[3] = tested on: Hepa1-6 murine hepatoma cells; test: as above; format: cell-based; details: Mus musculus, Hepa1-6, 168 h, read-out: Hepa1-6 (IC50), anti-clonogenic activity
Description: as §1, §2, §3

| Structure (SMILES) | drug interaction effect in combination with lenvatinib (Hepa1-6 cells; at all tested concentrations) | drug interaction effect in combination with sorafenib (Hepa1-6 cells; at all tested concentrations) | hepatic cell death pathways (pyroptosis, apoptosis, necroptosis) by Western blot [1] | pIC50 [2] | pIC50 [3] | drug interaction effect in combination with sorafenib (Hepa1-6 cells; at various concentrations) |
| --- | --- | --- | --- | --- | --- | --- |
| CC(C)(CCCCc1ccc(CCCCC(C)(C)C(=O)O)cc1)C(=O)O [Compound I-1, 6-[4-(5-carboxy-5-methylhexyl)-phenyl]-2,2-dimethylhexanoic acid] | synergism | synergism | significantly repressed pyroptosis and apoptosis cell death pathways with a trend towards necroptosis | 4.30 | 4.17 | – |
| CC(C)(CCCCc1cccc(CCCCC(C)(C)C(=O)O)c1)C(=O)O [Compound I-32, 6-[3-(5-carboxy-5-methylhexyl)-phenyl]-2,2-dimethylhexanoic acid] | synergism | – | significantly repressed pyroptosis and apoptosis cell death pathways with a trend towards necroptosis | 4.39 | 4.23 | synergism |

— patent US11730712B2, “Functionalized long-chain hydrocarbon mono- and di-carboxylic acids and derivatives thereof, and their use for the prevention or treatment of disease” (ESPERVITA THERAPEUTICS, INC., priority 2021, dated 2023)
